One may read the Ki as the equilibrium dissociation constant of an inhibitor or competing ligand from its target. By viability is commonly meant a read-out of living cells in per cent, often relative to untreated cells.

The structures appear in SMILES notation. Like-named read-outs stand apart in the source and are kept apart here.

For series [1], the target named is PgQC (glutaminyl cyclase from P. gingivalis) (Porphyromonas gingivalis, UniProt Q7MT37). Put plainly: Inhibition of P. gingivalis glutaminyl cyclase, fluorogenic substrate H-Gln-AMC. Type of series: biochemical.
PgQC (glutaminyl cyclase from P. gingivalis), sequence (Q7MT37 entry or part of it): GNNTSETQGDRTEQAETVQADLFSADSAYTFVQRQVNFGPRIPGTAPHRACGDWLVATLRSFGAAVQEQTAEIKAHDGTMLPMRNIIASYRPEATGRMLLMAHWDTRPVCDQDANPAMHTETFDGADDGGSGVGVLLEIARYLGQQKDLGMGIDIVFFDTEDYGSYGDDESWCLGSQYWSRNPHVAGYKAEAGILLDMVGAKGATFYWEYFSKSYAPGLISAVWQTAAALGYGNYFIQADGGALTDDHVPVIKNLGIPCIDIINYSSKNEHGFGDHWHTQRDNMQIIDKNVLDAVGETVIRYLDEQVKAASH
Method: (§2) The enzymatic activity of recombinant QCs were evaluated using the fluorogenic substrate H-Gln-AMC as described previously [25]. For inhibitor testing, compounds were added with 1% (v/v) DMSO in the reaction mixture. Inhibitory constants were determined using concentrations of H-Gln-AMC varying from 1/4 KM to 2 KM and a final concentration of QC in a range between 20 and 50 nM. Progress curves were fitted to the general equation for competitive inhibition using GraFit software (Version 7, Erithacus software Ltd., Horley, UK).
The target in series [2] is TfQC. Kind of series: Inhibition of Tannerella forsythia glutaminyl cyclase, fluorogenic substrate H-Gln-AMC. To be noted: read-out: Ki TfQC; recombinant QC, competitive inhibition fit.
Method: as §2
Series [3] in a line: Cytotoxicity, cell viability in SHSY-5Y. To be noted: human, SHSY-5Y cells; 30 µM compound. Type of series: cell-based. From the text: (§1) Table 3 Inhibition of related glutaminyl cyclases from bacteria and human and cytotoxicity of selected inhibitors. | column: 8k; 8t; 8w
Series [4] has as its target hQC (human glutaminyl cyclase) (Homo sapiens, UniProt Q16769). Kind of series: Inhibition of human glutaminyl cyclase, fluorogenic substrate H-Gln-AMC. The series is classed as biochemical.
Method: (§3) The enzymatic activity of recombinant QCs were evaluated using the fluorogenic substrate H-Gln-AMC as described previously [25]. For inhibitor testing, compounds were added with 1% (v/v) DMSO in the reaction mixture.
The target in series [5] is PiQC (Prevotella intermedia, UniProt A0A3R7XL21). Kind of series: Inhibition of Prevotella intermedia glutaminyl cyclase, fluorogenic substrate H-Gln-AMC. The series is classed as biochemical. Particulars: recombinant QC, competitive inhibition fit.
PiQC, sequence (A0A3R7XL21 entry or part of it): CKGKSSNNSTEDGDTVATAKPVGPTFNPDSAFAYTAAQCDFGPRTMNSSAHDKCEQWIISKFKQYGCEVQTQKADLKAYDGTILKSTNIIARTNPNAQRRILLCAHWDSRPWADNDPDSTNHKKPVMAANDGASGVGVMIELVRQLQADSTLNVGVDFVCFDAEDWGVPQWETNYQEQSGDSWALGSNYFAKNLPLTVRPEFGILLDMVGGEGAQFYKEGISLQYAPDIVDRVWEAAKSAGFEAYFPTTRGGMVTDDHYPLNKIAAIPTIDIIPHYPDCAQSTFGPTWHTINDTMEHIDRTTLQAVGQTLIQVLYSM
Method: as §3
Series [6] can be described thus: Cytotoxicity, cell viability in Hep-G2. Type of series: cell-based. Particulars: human, Hep-G2 cells; 30 µM compound.
Text: as §1

Setting [7] is: recombinant QC, competitive inhibition fit, read-out: Ki PgQC.
[8] abbreviates: recombinant QC, competitive inhibition fit, read-out: Ki hQC.

hQC (human glutaminyl cyclase), sequence (Q16769 29-361): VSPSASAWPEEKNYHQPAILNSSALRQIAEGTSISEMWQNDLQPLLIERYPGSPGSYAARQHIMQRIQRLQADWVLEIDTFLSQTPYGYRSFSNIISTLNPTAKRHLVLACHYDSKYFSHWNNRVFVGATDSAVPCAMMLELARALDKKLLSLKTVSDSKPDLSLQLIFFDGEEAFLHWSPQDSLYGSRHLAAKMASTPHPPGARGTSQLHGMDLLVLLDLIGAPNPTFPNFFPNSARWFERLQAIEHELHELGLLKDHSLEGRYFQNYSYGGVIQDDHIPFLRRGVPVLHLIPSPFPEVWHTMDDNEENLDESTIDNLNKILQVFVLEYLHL

As for `c1ccc(CNCCc2c[nH]cn2)cc1` [6a, N-Benzylhistamine], the “Inhibition of PgQC at 10 µM” value in series [1] is recorded as “no inhibition @ 10 µM”.

As for `c1ccc(CN2CCc3[nH]cnc3C2)cc1` [7a, 5-Benzyl-3,4,6,7-tetrahydroimidazo[4,5-c]pyridine], the Ki in series [1] (setting [7]) came out at 0.909 ± 0.005 µM.

For `c1ccc(CCN2CCc3[nH]cnc3C2)cc1` [7b, 5-(2-Phenylethyl)-3,4,6,7-tetrahydroimidazo[4,5-c]pyridine], the Ki in series [1] (setting [7]) worked out at 6.47 ± 0.4 µM.

For the molecule `c1ccc(CN2CCc3[nH]cnc3C23COC3)cc1` [7c, 5-Benzylspiro[6,7-dihydro-3H-imidazo[4,5-c]pyridine-4,3′-oxetane]], the Ki in series [1] (setting [7]) stood at 1.76 ± 0.145 µM.

As for `CC1c2nc[nH]c2CCN1Cc1ccccc1` (stereo not shown) [7d, 5-Benzyl-4-methyl-3,4,6,7-tetrahydroimidazo[4,5-c]pyridine], the Ki in series [1] (setting [7]) is 3.08 ± 0.04 µM.

With `c1ccc(CN2CCc3nc[nH]c3C2c2ccccc2)cc1` (stereo not shown) [7e, 5-Benzyl-4-phenyl-3,4,6,7-tetrahydroimidazo[4,5-c]pyridine], the “Inhibition of PgQC at 10 µM” value in series [1] is “no inhibition @ 10 µM”.

In the case of `O=C(c1ccccc1)N1CCc2[nH]cnc2C1` [8a, Phenyl(3,4,6,7-tetrahydroimidazo[4,5-c]pyridin-5-yl)methanone], the Ki in series [1] (setting [7]) is 0.435 ± 0.015 µM.

Consider `O=C(Cc1ccccc1)N1CCc2[nH]cnc2C1` [8b, 2-Phenyl-1-(3,4,6,7-tetrahydroimidazo[4,5-c]pyridin-5-yl)ethanone], for which the Ki in series [1] (setting [7]) was determined as 1.68 ± 0.08 µM.

Turning to `O=C(CCc1ccccc1)N1CCc2[nH]cnc2C1` [8c, 3-Phenyl-1-(3,4,6,7-tetrahydroimidazo[4,5-c]pyridin-5-yl)propan-1-one], the Ki in series [1] (setting [7]) is 1.75 ± 0.06 µM.

As for `O=C(/C=C/c1ccccc1)N1CCc2[nH]cnc2C1` [8d, (E)-3-Phenyl-1-(3,4,6,7-tetrahydroimidazo[4,5-c]pyridin-5-yl)prop-2-en-1-one], the Ki in series [1] (setting [7]) was determined as 1.57 ± 0.025 µM.

In the case of `O=C(c1ccc(F)cc1)N1CCc2[nH]cnc2C1` [8e, (4-Fluorophenyl)-(3,4,6,7-tetrahydroimidazo[4,5-c]pyridin-5-yl)methanone], the Ki in series [1] (setting [7]) stood at 0.879 ± 0.008 µM.

With `O=C(c1cccc(F)c1)N1CCc2[nH]cnc2C1` [8f, (3-Fluorophenyl)-(3,4,6,7-tetrahydroimidazo[4,5-c]pyridin-5-yl)methanone], the Ki in series [1] (setting [7]) stood at 0.322 ± 0.006 µM.

As for `O=C(c1cc(F)c(F)c(F)c1)N1CCc2[nH]cnc2C1` [8g, (3,4,6,7-Tetrahydroimidazo[4,5-c]pyridin-5-yl)(3,4,5-trifluoro-phenyl)methanone], the Ki in series [1] (setting [7]) stood at 0.904 ± 0.007 µM.

Take `O=C(c1ccc(Cl)cc1)N1CCc2[nH]cnc2C1` [8h, (4-Chlorophenyl)-(3,4,6,7-tetrahydroimidazo[4,5-c]pyridin-5-yl)methanone]: the Ki in series [1] (setting [7]) is 0.682 ± 0.025 µM.

With `O=C(c1cccc(Cl)c1)N1CCc2[nH]cnc2C1` [8i, (3-Chlorophenyl)-(3,4,6,7-tetrahydroimidazo[4,5-c]pyridin-5-yl)methanone], the Ki in series [1] (setting [7]) came out at 0.174 ± 0.014 µM.

Turning to `O=C(c1ccc(Cl)c(Cl)c1)N1CCc2[nH]cnc2C1` [8j, (3,4-Dichlorophenyl)-(3,4,6,7-tetrahydroimidazo[4,5-c]pyridin-5-yl)methanone], the Ki in series [1] (setting [7]) is 0.257 ± 0.016 µM.

On to `O=C(c1cc(Cl)cc(Cl)c1)N1CCc2nc[nH]c2C1` [8k, (3,5-Dichlorophenyl)-(3,4,6,7-tetrahydroimidazo[4,5-c]pyridin-5-yl)methanone], for which the Ki in series [2] is 0.176 ± 0.003 µM; in series [4] (setting [8]), 0.387 ± 0.064 µM; in series [5], 0.063 ± 0.007 µM; in series [1] (setting [7]), 0.1 ± 0.006 µM. The viability at 30 µM was 119% in series [3] and 92% in series [6].

Turning to `COc1ccc(C(=O)N2CCc3[nH]cnc3C2)cc1` [8l, (4-Methoxyphenyl)-(3,4,6,7-tetrahydroimidazo[4,5-c]pyridin-5-yl)methanone], the Ki in series [1] (setting [7]) was determined as 0.833 ± 0.049 µM.

Regarding `COc1cccc(C(=O)N2CCc3[nH]cnc3C2)c1` [8m, (3-Methoxyphenyl)-(3,4,6,7-tetrahydroimidazo[4,5-c]pyridin-5-yl)methanone], in series [1] (setting [7]), the Ki came out at 0.335 ± 0.006 µM.

Take `COc1ccc(C(=O)N2CCc3[nH]cnc3C2)cc1OC` [8n, (3,4-Dimethoxyphenyl)-(3,4,6,7-tetrahydroimidazo[4,5-c]pyridin-5-yl)methanone]: the Ki in series [1] (setting [7]) was determined as 1.47 ± 0.304 µM.

Regarding `COc1cc(OC)cc(C(=O)N2CCc3[nH]cnc3C2)c1` [8o, (3,5-Dimethoxyphenyl)-(3,4,6,7-tetrahydroimidazo[4,5-c]pyridin-5-yl)methanone], the Ki in series [1] (setting [7]) stood at 0.928 ± 0.021 µM.

Regarding `O=C(c1ccc2c(c1)OCCO2)N1CCc2[nH]cnc2C1` [8p, (2,3-Dihydrobenzo[b][1,4]dioxin-6-yl)(1,4,6,7-tetrahydro-5H-imidazo-[4,5-c]pyridin-5-yl)methanone], in series [1] (setting [7]), the Ki was 1.34 ± 0.219 µM.

As to `O=C(c1ccc2c(c1)OCO2)N1CCc2[nH]cnc2C1` [8q, Benzo[d][1,3]dioxol-5-yl(3,4,6,7-tetrahydroimidazo[4,5-c]pyridin-5-yl)methanone], in series [1] (setting [7]), the Ki turned out to be 0.56 ± 0.004 µM.

`CCCOc1cccc(C(=O)N2CCc3[nH]cnc3C2)c1` [8r, (3-Propoxyphenyl)-(3,4,6,7-tetrahydroimidazo[4,5-c]pyridin-5-yl)methanone]: the Ki in series [1] (setting [7]) was 0.78 ± 0.024 µM.

Turning to `COc1cc(C(=O)N2CCc3[nH]cnc3C2)ccc1F` [8s, (4-Fluoro-3-methoxyphenyl)-(3,4,6,7-tetrahydroimidazo[4,5-c]pyridin-5-yl)methanone], the Ki in series [1] (setting [7]) came to 1.24 ± 0.113 µM.

As to `COc1cc(Cl)cc(C(=O)N2CCc3[nH]cnc3C2)c1` [8t, (3-Chloro-5-methoxyphenyl)(1,4,6,7-tetrahydro-5H-imidazo[4,5-c]pyridin-5-yl)methanone], the Ki in series [2] stood at 0.221 ± 0.019 µM; in series [4] (setting [8]), 0.385 ± 0.096 µM; in series [5], 0.096 ± 0.012 µM; in series [1] (setting [7]) it was 0.087 ± 0.006 µM. Also, the viability at 30 µM came to 128% in series [3] and 96% in series [6].

Take `O=C(c1ccc(-c2ccccc2)cc1)N1CCc2[nH]cnc2C1` [8u, [1,1′-Biphenyl]-4-yl(3,4,6,7-tetrahydroimidazo[4,5-c]pyridin-5-yl)methanone]: in series [1] (setting [7]), the Ki was found to be 1.9 ± 0.071 µM.

With `O=C(c1cccc(-c2ccccc2)c1)N1CCc2[nH]cnc2C1` [8v, [1,1′-Biphenyl]-3-yl-(3,4,6,7-tetrahydroimidazo[4,5-c]pyridin-5-yl)methanone], in series [1] (setting [7]), the Ki was 0.547 ± 0.041 µM.

On to `O=C(c1ccc2ccccc2c1)N1CCc2nc[nH]c2C1` [8w, Naphthalen-2-yl-(3,4,6,7-tetrahydroimidazo[4,5-c]pyridin-5-yl)methanone], for which the Ki in series [2] was 0.185 ± 0.01 µM; in series [4] (setting [8]) it was 0.132 ± 0.011 µM; in series [5] it was 0.117 ± 0.002 µM; in series [1] it was 0.126 ± 0.009 µM. The viability at 30 µM in series [3] was 127%; in series [6] it was 94%.

As to `COc1ccc(NC(=S)NCCCn2ccnc2)cc1OC` [PQ50, reference compound], in series [1] (setting [7]), the Ki was 6 ± 0.15 µM.

With `c1ccc2[nH]cnc2c1` [compound 1, benzimidazole, reference compound], the Ki in series [1] (setting [7]) stood at 32 ± 1.4 µM.

Consider `c1c[nH]cn1` [compound 2, imidazole, reference compound], for which the Ki in series [1] (setting [7]) is 350 ± 23 µM.

As to `c1ccc(Cn2ccnc2)cc1` [compound 3, N-benzylimidazole, reference compound], the Ki in series [4] amounted to 17 ± 3 µM; in series [1] (setting [7]) it was 10 ± 0.2 µM.

The values above are taken from article PMC8709289, “Tetrahydroimidazo[4,5-c]pyridine-Based Inhibitors of Porphyromonas gingivalis Glutaminyl Cyclase” (Pharmaceuticals, 2021).
